Source: the supplement of paper PMC9912026

Test system: A375_aEGFR2
Assay: pERK immunofluorescence normalised to no-drug reference (=1); higher = more ERK phosphorylation (less pathway inhibition)
Settings: drug treatment time 24 h, EGF time 8 h
Description: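 A375 CRISPRa-EGFR (A375_aEGFR2) or HT29 cells were treated with two-drug dose combinations (vemurafenib, LY3009120, cobimetinib) for 24 h, then stimulated with EGF (100 ng/mL) or mock medium for 8 h. pERK (T202/Y204) was measured by immunofluorescence as the cytosolic population average, normalised to an untreated no-drug reference of the block (=1). Averages of 2 technical replicates. A375 in 5% FBS, HT29 in 10% FBS.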

CNc1ncc2cc(-c3cc(NC(=O)NCCC(C)(C)C)c(F)cc3C)c(C)nc2n1 + O=C(c1ccc(F)c(F)c1Nc1ccc(I)cc1F)N1CC(O)([C@@H]2CCCCN2)C1 [Cobimetinib]
pERK immunofluorescence normalised
Settings | EGF 0 ng/mL | EGF 100 ng/mL
drug A concentration 0 µM, drug B concentration 31.62 pM | 1.06 | 0.985
drug A concentration 0 µM, drug B concentration 0.0001 µM | 1.04 | 0.985
drug A concentration 0 µM, drug B concentration 0.000316228 µM | 1.08 | 0.976
drug A concentration 0 µM, drug B concentration 0.001 µM | 0.997 | 0.964
drug A concentration 0 µM, drug B concentration 0.00316228 µM | 0.841 | 0.85
drug A concentration 0 µM, drug B concentration 0.01 µM | 0.546 | 0.726
drug A concentration 0 µM, drug B concentration 0.0316228 µM | 0.29 | 0.564
drug A concentration 0 µM, drug B concentration 0.1 µM | 0.243 | 0.541
drug A concentration 0 µM, drug B concentration 0.316228 µM | 0.235 | 0.428
drug A concentration 0 µM, drug B concentration 1 µM | 0.235 | 0.278
drug A concentration 0.0001 µM, drug B concentration 0 µM | 1.07 | 0.987
drug A concentration 0.0001 µM, drug B concentration 31.62 pM | 0.993 | 0.987
drug A concentration 0.0001 µM, drug B concentration 0.0001 µM | 1.05 | 1.01
drug A concentration 0.0001 µM, drug B concentration 0.000316228 µM | 1.01 | 0.946
drug A concentration 0.0001 µM, drug B concentration 0.001 µM | 0.966 | 0.944
drug A concentration 0.0001 µM, drug B concentration 0.00316228 µM | 0.816 | 0.848
drug A concentration 0.0001 µM, drug B concentration 0.01 µM | 0.498 | 0.692
drug A concentration 0.0001 µM, drug B concentration 0.0316228 µM | 0.284 | 0.606
drug A concentration 0.0001 µM, drug B concentration 0.1 µM | 0.242 | 0.545
drug A concentration 0.0001 µM, drug B concentration 0.316228 µM | 0.234 | 0.416
drug A concentration 0.0001 µM, drug B concentration 1 µM | 0.233 | 0.259
drug A concentration 0.000316228 µM, drug B concentration 0 µM | 1.05 | 1.03
drug A concentration 0.000316228 µM, drug B concentration 31.62 pM | 0.999 | 1.03
drug A concentration 0.000316228 µM, drug B concentration 0.0001 µM | 1.02 | 1.03
drug A concentration 0.000316228 µM, drug B concentration 0.000316228 µM | 1.01 | 0.998
drug A concentration 0.000316228 µM, drug B concentration 0.001 µM | 0.945 | 0.935
drug A concentration 0.000316228 µM, drug B concentration 0.00316228 µM | 0.829 | 0.882
drug A concentration 0.000316228 µM, drug B concentration 0.01 µM | 0.517 | 0.722
drug A concentration 0.000316228 µM, drug B concentration 0.0316228 µM | 0.298 | 0.611
drug A concentration 0.000316228 µM, drug B concentration 0.1 µM | 0.245 | 0.533
drug A concentration 0.000316228 µM, drug B concentration 0.316228 µM | 0.233 | 0.352
drug A concentration 0.000316228 µM, drug B concentration 1 µM | 0.233 | 0.234
drug A concentration 0.001 µM, drug B concentration 0 µM | 1.02 | 1
drug A concentration 0.001 µM, drug B concentration 31.62 pM | 0.985 | 0.999
drug A concentration 0.001 µM, drug B concentration 0.0001 µM | 1 | 0.937
drug A concentration 0.001 µM, drug B concentration 0.000316228 µM | 1.02 | 0.923
drug A concentration 0.001 µM, drug B concentration 0.001 µM | 0.892 | 0.935
drug A concentration 0.001 µM, drug B concentration 0.00316228 µM | 0.807 | 0.832
drug A concentration 0.001 µM, drug B concentration 0.01 µM | 0.498 | 0.709
drug A concentration 0.001 µM, drug B concentration 0.0316228 µM | 0.288 | 0.558
drug A concentration 0.001 µM, drug B concentration 0.1 µM | 0.238 | 0.444
drug A concentration 0.001 µM, drug B concentration 0.316228 µM | 0.233 | 0.258
drug A concentration 0.001 µM, drug B concentration 1 µM | 0.232 | 0.218
drug A concentration 0.00316228 µM, drug B concentration 0 µM | 0.921 | 0.917
drug A concentration 0.00316228 µM, drug B concentration 31.62 pM | 0.894 | 0.899
drug A concentration 0.00316228 µM, drug B concentration 0.0001 µM | 0.938 | 0.957
drug A concentration 0.00316228 µM, drug B concentration 0.000316228 µM | 0.912 | 0.905
drug A concentration 0.00316228 µM, drug B concentration 0.001 µM | 0.817 | 0.849
drug A concentration 0.00316228 µM, drug B concentration 0.00316228 µM | 0.675 | 0.753
drug A concentration 0.00316228 µM, drug B concentration 0.01 µM | 0.432 | 0.595
drug A concentration 0.00316228 µM, drug B concentration 0.0316228 µM | 0.275 | 0.439
drug A concentration 0.00316228 µM, drug B concentration 0.1 µM | 0.237 | 0.309
drug A concentration 0.00316228 µM, drug B concentration 0.316228 µM | 0.231 | 0.225
drug A concentration 0.00316228 µM, drug B concentration 1 µM | 0.232 | 0.214
drug A concentration 0.01 µM, drug B concentration 0 µM | 0.728 | 0.795
drug A concentration 0.01 µM, drug B concentration 31.62 pM | 0.777 | 0.778
drug A concentration 0.01 µM, drug B concentration 0.0001 µM | 0.787 | 0.8
drug A concentration 0.01 µM, drug B concentration 0.000316228 µM | 0.745 | 0.753
drug A concentration 0.01 µM, drug B concentration 0.001 µM | 0.613 | 0.674
drug A concentration 0.01 µM, drug B concentration 0.00316228 µM | 0.495 | 0.622
drug A concentration 0.01 µM, drug B concentration 0.01 µM | 0.31 | 0.454
drug A concentration 0.01 µM, drug B concentration 0.0316228 µM | 0.247 | 0.333
drug A concentration 0.01 µM, drug B concentration 0.1 µM | 0.24 | 0.245
drug A concentration 0.01 µM, drug B concentration 0.316228 µM | 0.231 | 0.216
drug A concentration 0.01 µM, drug B concentration 1 µM | 0.231 | 0.212
drug A concentration 0.0316228 µM, drug B concentration 0 µM | 0.503 | 0.601
drug A concentration 0.0316228 µM, drug B concentration 31.62 pM | 0.461 | 0.56
drug A concentration 0.0316228 µM, drug B concentration 0.0001 µM | 0.488 | 0.582
drug A concentration 0.0316228 µM, drug B concentration 0.000316228 µM | 0.466 | 0.546
drug A concentration 0.0316228 µM, drug B concentration 0.001 µM | 0.385 | 0.524
drug A concentration 0.0316228 µM, drug B concentration 0.00316228 µM | 0.314 | 0.441
drug A concentration 0.0316228 µM, drug B concentration 0.01 µM | 0.258 | 0.351
drug A concentration 0.0316228 µM, drug B concentration 0.0316228 µM | 0.239 | 0.263
drug A concentration 0.0316228 µM, drug B concentration 0.1 µM | 0.234 | 0.223
drug A concentration 0.0316228 µM, drug B concentration 0.316228 µM | 0.231 | 0.212
drug A concentration 0.0316228 µM, drug B concentration 1 µM | 0.231 | 0.218
drug A concentration 0.1 µM, drug B concentration 0 µM | 0.301 | 0.436
drug A concentration 0.1 µM, drug B concentration 31.62 pM | 0.293 | 0.419
drug A concentration 0.1 µM, drug B concentration 0.0001 µM | 0.302 | 0.422
drug A concentration 0.1 µM, drug B concentration 0.000316228 µM | 0.286 | 0.399
drug A concentration 0.1 µM, drug B concentration 0.001 µM | 0.273 | 0.373
drug A concentration 0.1 µM, drug B concentration 0.00316228 µM | 0.251 | 0.347
drug A concentration 0.1 µM, drug B concentration 0.01 µM | 0.238 | 0.281
drug A concentration 0.1 µM, drug B concentration 0.0316228 µM | 0.232 | 0.233
drug A concentration 0.1 µM, drug B concentration 0.1 µM | 0.231 | 0.215
drug A concentration 0.1 µM, drug B concentration 0.316228 µM | 0.23 | 0.211
drug A concentration 0.1 µM, drug B concentration 1 µM | 0.231 | 0.211
drug A concentration 0.316228 µM, drug B concentration 0 µM | 0.246 | 0.336
drug A concentration 0.316228 µM, drug B concentration 31.62 pM | 0.248 | 0.325
drug A concentration 0.316228 µM, drug B concentration 0.0001 µM | 0.25 | 0.339
drug A concentration 0.316228 µM, drug B concentration 0.000316228 µM | 0.246 | 0.317
drug A concentration 0.316228 µM, drug B concentration 0.001 µM | 0.245 | 0.298
drug A concentration 0.316228 µM, drug B concentration 0.00316228 µM | 0.238 | 0.272
drug A concentration 0.316228 µM, drug B concentration 0.01 µM | 0.235 | 0.234
drug A concentration 0.316228 µM, drug B concentration 0.0316228 µM | 0.232 | 0.216
drug A concentration 0.316228 µM, drug B concentration 0.1 µM | 0.232 | 0.211
drug A concentration 0.316228 µM, drug B concentration 0.316228 µM | 0.23 | 0.211
drug A concentration 0.316228 µM, drug B concentration 1 µM | 0.231 | 0.212
drug A concentration 1 µM, drug B concentration 0 µM | 0.239 | 0.26
drug A concentration 1 µM, drug B concentration 31.62 pM | 0.24 | 0.254
drug A concentration 1 µM, drug B concentration 0.0001 µM | 0.248 | 0.252
drug A concentration 1 µM, drug B concentration 0.000316228 µM | 0.238 | 0.246
drug A concentration 1 µM, drug B concentration 0.001 µM | 0.237 | 0.242
drug A concentration 1 µM, drug B concentration 0.00316228 µM | 0.236 | 0.246
drug A concentration 1 µM, drug B concentration 0.01 µM | 0.235 | 0.217
drug A concentration 1 µM, drug B concentration 0.0316228 µM | 0.233 | 0.223
drug A concentration 1 µM, drug B concentration 0.1 µM | 0.234 | 0.212
drug A concentration 1 µM, drug B concentration 0.316228 µM | 0.233 | 0.21
drug A concentration 1 µM, drug B concentration 1 µM | 0.234 | 0.217
drug A concentration 3.16228 µM, drug B concentration 0 µM | 0.245 | 0.227
drug A concentration 3.16228 µM, drug B concentration 31.62 pM | 0.243 | 0.224
drug A concentration 3.16228 µM, drug B concentration 0.0001 µM | 0.243 | 0.224
drug A concentration 3.16228 µM, drug B concentration 0.000316228 µM | 0.242 | 0.228
drug A concentration 3.16228 µM, drug B concentration 0.001 µM | 0.241 | 0.219
drug A concentration 3.16228 µM, drug B concentration 0.00316228 µM | 0.24 | 0.215
drug A concentration 3.16228 µM, drug B concentration 0.01 µM | 0.237 | 0.214
drug A concentration 3.16228 µM, drug B concentration 0.0316228 µM | 0.239 | 0.214
drug A concentration 3.16228 µM, drug B concentration 0.1 µM | 0.238 | 0.218
drug A concentration 3.16228 µM, drug B concentration 0.316228 µM | 0.238 | 0.213
drug A concentration 3.16228 µM, drug B concentration 1 µM | 0.239 | 0.215
